Earlier results as cited in article PMC4261083, “An atypical residue in the pore of Varroa destructor GABA-activated RDL receptors affects picrotoxin block and thymol modulation” (Insect Biochemistry and Molecular Biology, 2014).

Biological target: Tetranychus RDL receptors
Parameters: method as in Asahi et al., 2014
Conditions: expressed in Xenopus oocytes, ref Asahi et al., 2014, cited from earlier work

Row | Structure (SMILES) | IC50 (read-out: IC50 for block of Tetranychus RDL receptors) [nM] | Sensitivity of Tetranychus RDL receptors to fipronil
1 | Cc1cc(C2=NOC(c3cc(Cl)cc(Cl)c3)(C(F)(F)F)C2)ccc1C(=O)NCC(=O)NCC(F)(F)F (centres unmarked) [fluralaner] | ~10 | 
2 | N#Cc1nn(-c2c(Cl)cc(C(F)(F)F)cc2Cl)c(N)c1[S+]([O-])C(F)(F)F (centres unmarked) [fipronil] |  | resistant
